How the values were obtained:
[1] = target: T1, wild-type Androgen Receptor (AR-wt) (Homo sapiens (Human), UniProt P10275); assay: LNCaP-AR-wt ANT reporter assay (antagonist mode); assay type: cell-based; conditions: for IC50: read-out: LNCaP-AR-wt ANT pIC50 (converted); for Emax: maximum % inhibition of R1881 control response over the tested concentration range, read-out: LNCaP-AR-wt ANT MAX % Inh
[2] = target: T1, wild-type Androgen Receptor (AR-wt); assay: LNCaP-AR-wt AG reporter assay (agonist mode); assay type: cell-based; conditions: for EC50: agonist mode, pEC50 = −Log10(EC50 in Molar), read-out: LNCaP-AR-wt AG pEC50 (converted); for Emax: maximum % stimulation (agonist response) over the tested concentration range, read-out: LNCaP-AR-wt AG MAX % Stim
[3] = target: T2, F876L mutant Androgen Receptor (AR-F876L) (Homo sapiens (Human), UniProt P10275, F877L); assay: LNCaP-AR-F876L ANT reporter assay (antagonist mode); assay type: cell-based; conditions: for IC50: read-out: LNCaP-AR-F876L ANT pIC50 (converted); for Emax: maximum % inhibition of R1881 control response over the tested concentration range, read-out: LNCaP-AR-F876L ANT MAX % Inh
T2 sequence (P10275 whole entry F877L): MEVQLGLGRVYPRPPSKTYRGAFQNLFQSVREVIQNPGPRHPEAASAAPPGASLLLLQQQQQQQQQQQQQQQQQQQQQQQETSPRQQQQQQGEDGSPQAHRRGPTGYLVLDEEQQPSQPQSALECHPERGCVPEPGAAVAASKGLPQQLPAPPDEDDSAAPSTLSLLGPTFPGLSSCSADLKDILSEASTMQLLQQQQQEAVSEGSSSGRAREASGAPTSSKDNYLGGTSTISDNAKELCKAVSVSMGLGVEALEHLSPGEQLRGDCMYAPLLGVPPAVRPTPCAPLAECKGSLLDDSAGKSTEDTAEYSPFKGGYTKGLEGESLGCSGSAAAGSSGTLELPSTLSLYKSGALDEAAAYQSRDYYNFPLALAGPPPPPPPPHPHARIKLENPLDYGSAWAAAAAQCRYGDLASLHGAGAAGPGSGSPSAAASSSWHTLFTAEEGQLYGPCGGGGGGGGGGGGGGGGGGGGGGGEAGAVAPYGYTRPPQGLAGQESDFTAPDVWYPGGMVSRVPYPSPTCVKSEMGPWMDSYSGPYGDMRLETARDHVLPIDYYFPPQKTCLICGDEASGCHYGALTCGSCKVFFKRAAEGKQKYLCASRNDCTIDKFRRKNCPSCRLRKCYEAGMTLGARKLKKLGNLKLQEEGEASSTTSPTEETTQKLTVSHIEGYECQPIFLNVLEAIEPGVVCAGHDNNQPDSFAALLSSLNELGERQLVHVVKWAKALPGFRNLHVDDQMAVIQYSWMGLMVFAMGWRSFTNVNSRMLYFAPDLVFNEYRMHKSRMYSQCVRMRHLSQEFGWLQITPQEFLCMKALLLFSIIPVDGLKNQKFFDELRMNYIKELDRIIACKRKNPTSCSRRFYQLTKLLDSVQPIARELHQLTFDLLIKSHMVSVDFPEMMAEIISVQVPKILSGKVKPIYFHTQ

[4] = target: T2, F876L mutant Androgen Receptor (AR-F876L); assay: LNCaP-AR-F876L AG reporter assay (agonist mode); assay type: cell-based; conditions: for EC50: agonist mode, pEC50 = −Log10(EC50 in Molar), read-out: LNCaP-AR-F876L AG pEC50 (converted); for Emax: maximum % stimulation (agonist response) over the tested concentration range, read-out: LNCaP-AR-F876L AG MAX % Stim
rGABA-gated Cl− channel = assay: GABA-Gated Cl Channel Antagonist Radioligand Binding Assay; set-up: species or system rat; conditions: 10 μM single point, [35S]-TBPS, cerebral cortex membrane homogenates
Method in brief: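 Values give percent inhibition of control specific […] (3 nM) binding at a single 10 μM compound concentration. Cerebral cortex membranes, 120 min, 22° C, phosphate buffer pH 7.4 with 500 mM NaCl; 20 μM picrotoxinin sets nonspecific binding; filtration and scintillation read-out.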

[5] = antagonist mode, pIC50 = −Log10(IC50 in Molar)

T1 sequence (P10275 whole entry): as the sequence (P10275 whole entry F877L) above, with L877F counted along it

| Structure (SMILES) | IC50 [1, 5] | Emax [1] | EC50 [2] | Emax [2] | IC50 [3, 5] | Emax [3] | EC50 [4] | Emax [4] | rGABA-gated Cl− channel % inh @10 μM (rGABA-gated Cl− channel) | LNCaP-AR-wt ANT pIC50 [1, 5] | LNCaP-AR-F876L ANT pIC50 [3, 5] |
| --- | --- | --- | --- | --- | --- | --- | --- | --- | --- | --- | --- |
| CNC(=O)N1CCN(Cc2ccc(N3C(=S)N(c4cnc(C#N)c(C(F)(F)F)c4)C(=O)C34CCC4)cc2)CC1 [Cpd 53, 4-[[4-[6-[6-cyano-5-(trifluoromethyl)-3-pyridyl]-5-oxo-7-thioxo-6,8-diazaspiro[3.4]octan-8-yl]phenyl]methyl]-N-methyl-piperazine-1-carboxamide] | 123 nM | 102% | > 15100 nM | 0.4% | 45.7 nM | 100% | > 15100 nM | 0.1% | 52.4% |  |  |
| N#Cc1ncc(N2C(=O)C3(CCC3)N(c3ccc(OCC4CC(F)(F)CN4)cc3)C2=S)cc1C(F)(F)F (stereo not drawn) [Cpd 54, 5-[8-[4-[(4,4-difluoropyrrolidin-2-yl)methoxy]phenyl]-5-oxo-7-thioxo-6,8-diazaspiro[3.4]octan-6-yl]-3-(trifluoromethyl)pyridine-2-carbonitrile] | 81.3 nM | 101% | > 15100 nM | 1.3% | 93.3 nM | 97.1% | > 15100 nM | 0.7% | 93.0% |  |  |
| CCOC(=O)N1CCN(Cc2ccc(N3C(=S)N(c4cnc(C#N)c(C(F)(F)F)c4)C(=O)C34CCC4)cc2)CC1 [Cpd 55, Ethyl 4-[[4-[6-[6-cyano-5-(trifluoromethyl)-3-pyridyl]-5-oxo-7-thioxo-6,8-diazaspiro[3.4]octan-8-yl]phenyl]methyl]piperazine-1-carboxylate] | 72.4 nM | 104% | > 15100 nM | 0.6% | 40.7 nM | 101% | > 15100 nM | 0.5% | 100.0% |  |  |
| CCOC(=O)N1CCN(c2ccc(N3C(=S)N(c4cnc(C#N)c(C(F)(F)F)c4)C(=O)C34CCC4)cc2)CC1 [Cpd 58, Ethyl 4-[4-[6-[6-cyano-5-(trifluoromethyl)-3-pyridyl]-5-oxo-7-thioxo-6,8-diazaspiro[3.4]octan-8-yl]phenyl]piperazine-1-carboxylate] | 87.1 nM | 101% | > 15100 nM | 0% | 93.3 nM | 98.1% | > 15100 nM | 1% | 88.1% |  |  |
| CN1CC(COc2ccc(N3C(=S)N(c4cnc(C#N)c(C(F)(F)F)c4)C(=O)C34CCC4)cc2)C1 [Cpd 59, 5-[8-[4-[(1-methylazetidin-3-yl)methoxy]phenyl]-5-oxo-7-thioxo-6,8-diazaspiro[3.4]octan-6-yl]-3-(trifluoromethyl)pyridine-2-carbonitrile] | 135 nM | 102% | > 15100 nM | 0% | 56.2 nM | 100% | > 15100 nM | 0.1% | 16.0% |  |  |
| N#CCN1CCC(Oc2ccc(N3C(=S)N(c4cnc(C#N)c(C(F)(F)F)c4)C(=O)C34CCC4)cn2)CC1 [Cpd 60, 5-[8-[6-[[1-(cyanomethyl)-4-piperidyl]oxy]-3-pyridyl]-5-oxo-7-thioxo-6,8-diazaspiro[3.4]octan-6-yl]-3-(trifluoromethyl)pyridine-2-carbonitrile] | 22.9 nM | 99.2% | > 15100 nM | 0.8% | 9.55 nM | 98.1% | > 15100 nM | 0.6% | 91.5% |  |  |
| COCCN1CCC(Oc2ccc(N3C(=S)N(c4cnc(C#N)c(C(F)(F)F)c4)C(=O)C34CCC4)cn2)CC1 [Cpd 61, 5-[8-[6-[[1-(2-methoxyethyl)-4-piperidyl]oxy]-3-pyridyl]-5-oxo-7-thioxo-6,8-diazaspiro[3.4]octan-6-yl]-3-(trifluoromethyl)pyridine-2-carbonitrile] | 29.5 nM | 99.2% | > 15100 nM | 0.4% | 36.3 nM | 98.8% | > 15100 nM | 0.3% | 26.1% |  |  |
| Cc1cc(N2C(=O)C3(CCC3)N(c3ccc(OC4CCN(CC(F)(F)F)CC4)nc3)C2=S)cnc1C#N [Cpd 62, 3-methyl-5-[5-oxo-7-thioxo-8-[6-[[1-(2,2,2-trifluoroethyl)-4-piperidyl]oxy]-3-pyridyl]-6,8-diazaspiro[3.4]octan-6-yl]pyridine-2-carbonitrile] | 38 nM | 100% | > 15100 nM | 0.5% | 26.9 nM | 98.4% | > 15100 nM | 0.2% | 61.0% |  |  |
| N#Cc1ncc(N2C(=O)C3(CCC3)N(c3ccc(OC4CCN(CCO)CC4)nc3)C2=S)cc1C(F)(F)F [Cpd 63, 5-[8-[6-[[1-(2-hydroxyethyl)-4-piperidyl]oxy]-3-pyridyl]-5-oxo-7-thioxo-6,8-diazaspiro[3.4]octan-6-yl]-3-(trifluoromethyl)pyridine-2-carbonitrile] | 81.3 nM | 102% | > 15100 nM | 0% | 69.2 nM | 101% | > 15100 nM | 0.1% | 13.0% |  |  |
| N#Cc1ncc(N2C(=O)C3(CCC3)N(c3ccc(OC4CCNCC4)nc3)C2=S)cc1Cl [Cpd 64, 3-chloro-5-[5-oxo-8-[6-(4-piperidyloxy)-3-pyridyl]-7-thioxo-6,8-diazaspiro[3.4]octan-6-yl]pyridine-2-carbonitrile] |  | 101% | > 15100 nM | -0.2% |  | 100% | > 15100 nM | 0.1% | 5.8% | 7.30 | 7.33 |
| N#CCN1CCC(Oc2ccc(N3C(=S)N(c4cnc(C#N)c(Cl)c4)C(=O)C34CCC4)cn2)CC1 [Cpd 65, 3-chloro-5-[8-[6-[[1-(cyanomethyl)-4-piperidyl]oxy]-3-pyridyl]-5-oxo-7-thioxo-6,8-diazaspiro[3.4]octan-6-yl]pyridine-2-carbonitrile] | 7.24 nM | 101% | > 15100 nM | 0.4% | 8.51 nM | 99.3% | > 15100 nM | 0.4% | 67.2% |  |  |
| N#Cc1ncc(N2C(=O)C3(CCC3)N(c3ccc(OC4CCN(CC(F)(F)F)CC4)nc3)C2=S)cc1C(F)(F)F [Cpd 66, 5-[5-oxo-7-thioxo-8-[6-[[1-(2,2,2-trifluoroethyl)-4-piperidyl]oxy]-3-pyridyl]-6,8-diazaspiro[3.4]octan-6-yl]-3-(trifluoromethyl)pyridine-2-carbonitrile] | 49 nM | 99% | > 15100 nM | 0.5% | 45.7 nM | 95.5% | > 15100 nM | 0.9% | 83.0% |  |  |
| N#Cc1ncc(N2C(=O)C3(CCC3)N(c3ccc(OC4CCN(CCF)CC4)nc3)C2=S)cc1C(F)(F)F [Cpd 67, 5-[8-[6-[[1-(2-fluoroethyl)-4-piperidyl]oxy]-3-pyridyl]-5-oxo-7-thioxo-6,8-diazaspiro[3.4]octan-6-yl]-3-(trifluoromethyl)pyridine-2-carbonitrile] | 42.7 nM | 99.6% | > 15100 nM | 0.4% | 46.8 nM | 97.4% | > 15100 nM | 0.7% | 53.4% |  |  |
| N#Cc1ncc(N2C(=O)C3(CCC3)N(c3ccc(OC4CCC(N)CC4)cc3)C2=S)cc1C(F)(F)F (stereo not drawn) [Cpd 68, 5-[8-[4-(4-aminocyclohexoxy)phenyl]-5-oxo-7-thioxo-6,8-diazaspiro[3.4]octan-6-yl]-3-(trifluoromethyl)pyridine-2-carbonitrile] | 39.8 nM | 101% | > 15100 nM | 0.6% | 17.4 nM | 99.7% | > 15100 nM | 0.4% | 34.9% |  |  |
| N#Cc1ncc(N2C(=O)C3(CCC3)N(c3ccc(N4CCOCC4)cc3)C2=S)cc1C(F)(F)F [Cpd 69, 5-[8-(4-Morpholinophenyl)-5-oxo-7-thioxo-6,8-diazaspiro[3.4]octan-6-yl]-3-(trifluoromethyl)pyridine-2-carbonitrile] | 115 nM | 101% | > 15100 nM | 0.2% | 69.2 nM | 98.9% | > 15100 nM | 0.1% | 77.5% |  |  |
